Source: US11963972B2, “Antiviral agents and nucleoside analogs for treatment of Zika virus” (priority 2016, dated 2024)

Assays:
[1] = Cytotoxicity MTT assay in CEM cells; assay type: cell-based; conditions: human
Text: (§1) The toxicity of the compounds can be assessed in Vero, human PBM, CEM (human lymphoblastoid), and can be assessed in MT-2, and HepG2 cells, as described previously (see Schinazi R. F., Sommadossi J.-P., Saalmann V., Cannon D. L., Xie M.-Y., Hart G. C., Smith G. A. & Hahn E. F. Antimicrob. Agents Chemother. 1990, 34, 1061-67). Cycloheximide can be included as positive cytotoxic control, and untreated cells exposed to solvent can be included as negative controls. The cytotoxicity (IC50) can be obtained from the concentration-response curve using the median effective method described previously (see Chou T.-C. & Talalay P. Adv. Enzyme Regul. 1984, 22, 27-55; Belen'kii M. S. & Schinazi R. F. Antiviral Res. 1994, 25, 1-11).

[2] = Cytotoxicity MTT assay in Huh7 cells; assay type: cell-based; conditions: human
[3] = system: ZIKV Puerto Rico strain (PRVABC59); assay: ZIKV CPE MTS assay in human neuroblastoma (U251) cells; assay type: cell-based, Zika virus; conditions: Zika virus; for IC50: U-251, 120 h, read-out: ZIKV CPE MTS Assay IC50 (μM) H251
Method: (§2) […] Cell cytopathic effect (CPE) MTS assay (CellTiter 96@k) AQueous One Solution Cell Proliferation Promega kit, Promega) was measured four (Vero) or five (U251 or Huh7) days after compound addition to determine the levels of replication inhibition.

[4] = Cytotoxicity MTT assay in Vero cells; assay type: cell-based; conditions: African green monkey
Text: as §1

[5] = Cytotoxicity MTT assay in PBM cells; assay type: cell-based; conditions: human
Method: v) Cellular Toxicity Assays: Nucleoside and nucleoside monophosphate prodrugs can be evaluated for their potential toxic effects on P4/R5 cells, MT-2 cells and uninfected PHA-stimulated human PBM cell. Log-phase P4/R5, MT-2, and PHA-stimulated human PBM cells can be seeded at 5×10^3 to 5×10^4 cells/well in 96-well cell culture plates containing 10-fold serial dilutions of the test drug. The cultures can be incubated for 2-4 days, after which 3-(4,5-dimethylthiazol-2-yl)-2,5-diphenyltetrazolium bromide (MTT) dye solution (Promega, Madison, WI) can be added to each well and incubated overnight. The reaction can be stopped with stop solubilization solution (Promega, Madison, WI) and plates can be read at a wavelength of 570 nm. The median 50% cytotoxic concentration (CC50) can be determined from the concentration-response curve using the median effect method.
as §1

[6] = system: ZIKV Puerto Rico strain (PRVABC59); assay: ZIKV CPE MTS assay in Huh7 cells; assay type: cell-based, Zika virus; conditions: Zika virus; for IC50: Huh-7, 120 h, read-out: ZIKV CPE MTS Assay IC50 (μM) Huh7
Method: as §2

[7] = Cytotoxicity MTT assay in HepG2 cells; assay type: cell-based; conditions: human
Text: as §1

[8] = system: ZIKV Puerto Rico strain (PRVABC59); assay: ZIKV CPE MTS assay in Vero cells; assay type: cell-based, Zika virus; conditions: Zika virus; for IC50: 96 h, read-out: ZIKV CPE MTS Assay IC50 (μM) Vero
Method: as §2

[9] = system: Zika virus; assay: Zika-infected Vero cell model, 4G2 antibody staining, FACS; assay type: cell-based; conditions: 72 h, MOI 0.1, Day 3, FACS, read-out: percent inhibition of Zika-infected Vero cells
Method: At 8 AM on Day 1, 10,000 cells/well were plated in a 96 well plate. At 2 PM, MOI 0.1 Zika virus was added. At 3 PM, virus inoculum was removed, and various concentrations of drug-containing medium was added, at multiple concentrations (duplicates of […]).
On Day 3, supernatants were harvested, and frozen for later RT-PCR confirmation. Cells were harvested, stained with 4G2 antibody, and intracellular virus was quantified with FACS. The EC50/EC90 were then calculated.
Concentrations of 10, 1, 0.1, 0.01 μM were assayed in duplicate for 10 total drugs. All cells were harvested, but the only cells stained with antibody were those contacted with the following compounds, in the listed concentrations:
All gates were established using uninfected cells as a control, and were maintained for all test conditions.

[10] = Vero cells, MOI=0.01, four days

Structure (SMILES) | IC50 ([1]; CEM lymphoblastoid cells) | IC50 [2] | IC50 [4] | IC50 ([5]; PHA-stimulated human PBM cells) | IC50 [7] | IC50 [8, 10] | IC50 [1] | IC50 ([5]; PBM cells) | also measured
CC1(O)C(O)[C@@H](CO)O[C@H]1n1ccc(N)nc1=O (stereo partly drawn) | 84.3 µM | > 100 µM | > 100 µM | 65.4 µM | 59.1 µM | 9.2 µM |  |  | IC50 ([3]; H251 cells, MOI=0.5, five days): 16.3 µM; IC50 ([6]; Huh7 cells, MOI=0.5, five days): 9.3 µM
CCOC(=O)[C@H](C)NP(=O)(OC[C@H]1O[C@@H](n2cnc3c(N)nc(N=[N+]=[N-])nc32)C(C)(O)C1O)Oc1ccccc1 (stereo partly drawn) |  | > 100 µM | > 100 µM |  | > 100 µM |  | > 100 µM | > 100 µM | IC50 [3]: > 20 µM; inhibition at 20 µM ([3]; U-251, read-out: ZIKV CPE MTS Assay percentage of inhibition at the concentration, H251): 34%; IC50 [6]: < 20 µM; inhibition at 20 µM ([6]; Huh-7, read-out: ZIKV CPE MTS Assay percentage of inhibition at the concentration, Huh7): 88%; IC50 ([8]; Vero): > 20 µM; inhibition at 20 µM ([8]; Vero, read-out: ZIKV CPE MTS Assay percentage of inhibition at the concentration, Vero): 3%
CC1(F)C(O)[C@@H](CO)O[C@H]1n1ccc(N)nc1=O (stereo partly drawn) | > 100 µM |  | > 100 µM | > 100 µM | > 100 µM | ≤ 10 µM |  |  | inhibition at 10 µM ([8]; Vero cells, at 10 μM, read-out: ZIKV CPE MTS Assay percentage of inhibition at the concentration, Vero): 65%
C[C@@H]1C[C@@H]([C@H](O)CC2CC(=O)NC(=O)C2)C(=O)[C@@H](C)C1 |  |  | 0.2 µM |  | 0.3 µM |  | 0.2 µM | 0.9 µM | 
CC1(O)C(O)[C@@H](CO)O[C@H]1n1cc(F)c2c(N)ncnc21 (stereo in doubt) |  |  |  |  |  |  |  |  | inhibition at 0.01 µM ([9]; 0.01 μM): 21%; inhibition at 0.1 µM ([9]; 0.1 μM): 59%; inhibition at 1 µM ([9]; 1 μM): 73%; inhibition at 10 µM ([9]; 10 μM): 83%
